Experimental data published in US9085507B2, “Desfesoterodine in the form of a tartaric acid salt” (ratiopharm GmbH, priority 2009, dated 2015).
Structures can show the parent of a compound that is named as a salt.

Legend:
[1] = In vitro solubility behaviour; assay type: physicochemical; settings: for In vitro solubility profile: compared with fesoterodine fumarate
Experimental: The in vitro solubility behaviour of fesoterodine fumarate (crystalline, commercially available), desfesoterodine fumarate in accordance with Comparative Example 1 and desfesoterodine tartrate in accordance with Example 1 of the invention was investigated:
Solubility behaviour scale: • poor: <20 mg/ml • average: 20 to 60 mg/ml • good: >60 to 80 mg/ml • very good: >80 mg/ml

[2] = Stability on storage, stress test; assay type: physicochemical
Experimental: Further, the stability on storage of desfesoterodine tartrate was determined in a stress test.

[3] = test system: overactive bladder syndrome; settings: both phase III studies, over placebo; cited from earlier work

| In vitro solubility behaviour ([1]; pH 4.5) | In vitro solubility behaviour ([1]; pH 10) | Stability on storage ([2]; aqueous solution, pH of 4.5) | Stability on storage ([2]; aqueous solution, pH of 10) | Stability on storage ([2]; solid form) | SMILES | In vitro solubility profile ([1]; listed as desfesoterodine salt of the invention) | In vitro solubility profile [1] | Clinically relevant outcomes (urge incontinence results/24 h, micturition frequency, median micturition volume) [3] |
| --- | --- | --- | --- | --- | --- | --- | --- | --- |
| Good | Good | advantageous stability on storage | advantageous stability on storage | advantageous stability on storage | CC(C)N(CC[C@H](c1ccccc1)c1cc(CO)ccc1O)C(C)C [Desfesoterodine tartrate, (R)-2-(3-diisopropylamino-1-phenylpropyl)-4-hydroxymethylphenol] | almost identical in vitro solubility profile to that of fesoterodine fumarate |  |  |
| Poor | Poor |  |  |  | CC(C)N(CC[C@H](c1ccccc1)c1cc(CO)ccc1O)C(C)C [Desfesoterodine fumarate, (R)-2-(3-diisopropylamino-1-phenylpropyl)-4-hydroxymethylphenol] |  | substantially poorer in vitro solubility profile |  |
| Good | Good |  |  |  | CC(C)C(=O)Oc1ccc(CO)cc1[C@H](CCN(C(C)C)C(C)C)c1ccccc1 [Fesoterodine fumarate, 2-[(1R)-3-(diisopropylamino)-1-phenylpropyl]-4-(hydroxymethyl)phenyl-isobutyrate] |  |  |  |
|  |  |  |  |  | CC(C)C(=O)Oc1ccc(CO)cc1[C@H](CCN(C(C)C)C(C)C)c1ccccc1 [Fesoterodine, 2-[(1R)-3-(diisopropylamino)-1-phenylpropyl]-4-(hydroxymethyl)phenyl-isobutyrate] |  |  | statistically significant improvements |
